Test [1] concerns the target T1, BBN receptor (Rattus norvegicus, UniProt P52500). The test is described as follows: Stimulation of amylase release from rat pancreatic acinar cells by the compound alone (agonist test). It counts as cell-based.
Test [2] has as its target T1, BBN receptor. Briefly: Inhibition of bombesin-stimulated amylase release from rat pancreatic acini. It counts as cell-based. The following applies: half-maximal inhibition of bombesin-stimulated amylase release from acini; mean ± s.e.m. How it is done: (§1) Acinar cells from rat pancreas bind BBN and secrete amylase when treated with BBN. The ability of potential antagonists to bind to rat pancreatic acinar cells was examined by determining the ability of the compounds to inhibit the binding of radiolabelled BBN. […] Finally, antagonist activity of the compounds was determined by measuring the ability of compounds to prevent the release of amylase from cells in response to BBN. […] This cell line was also used to evaluate biological activities of potential antagonists derived from the structures of BBN and GRP. The binding of synthetic compounds to cellular membranes prepared from NCI-H345 was determined. The ability of potential antagonists to block the BBN-stimulated increase in cytosolic levels of Ca^++ was determined. Compounds showing inhibition were further tested to determine the effect on growth of two human SCLC cell lines in culture.
The incubation solution contained 1% albumin and the wash solution contained 0.2% albumin. The solution was equilibrated with 100% O2. Dispersed acini were suspended in 20 ml of solution. Samples of 1 ml were incubated in the presence of various concentrations of compounds in the presence of 1 nM bombesin. After the first incubation the samples were washed 4 times with wash solution at 4° C. The acini were then resuspended in fresh incubation buffer and incubated at 37° C. Amylase release was measured by the Phadebas reagent. Amylase secretion during a given incubation was expressed as the percentage of amylase present in the acini at the beginning of that incubation that was released into the extracellular medium.

In test [3] the target is T1, BBN receptor. Briefly: Inhibition of 125I bombesin binding to rat pancreatic acinar cells. The following applies: inhibition of 125I bombesin binding; IC50 divided by radioligand concentration. The method, then:
Inhibition of equilibrium binding of ^125 I labeled bombesin to acinar membranes by the compounds was determined. The Kd was determined by dividing IC50 (the concentration of synthetic compound required to inhibit 50% of the specific binding of labelled BBN) by the concentration of radiolabeled peptide.

Test [4] has as its target T2, BBN receptor (Homo sapiens, UniProt P30550).
T2 construct: endogenous in cells; host or cells: NCI-H345 (human SCLC)
The test is described as follows: Inhibition of [125I]Tyr4-BBN binding to SCLC NCI-H345 membranes. Conditions: for inhibition of BBN binding to SCLC membranes (in words): radiolabelled Tyr4-BBN. How it is done:
as §1
Potential antagonists were also evaluated for their ability to inhibit the binding of radiolabelled Tyr^4 -BBN to SCLC membranes and for their effects on BBN signal transduction in SCLC cells.

The target of test [5] is T2, BBN receptor. The test is described as follows: Cytosolic Ca++ assay in SCLC cell line NCI-H345. The following applies: compound 10 μM; 10 nM BBN elevation of cytosolic Ca++. It counts as cell-based. Details: key: antagonized (A); had no effect (--) on the ability of 10 nM BBN to. The method, then: SCLC cell line NCI-H345 was cultured for two days in medium containing 10^-8 M hydrocortisone, 5 μg/ml bovine insulin, 10 μg/ml human transferrin, 10^-8 M β-estradiol and 3×10^-8 M Na2 SeO3. The cells were harvested and washed, resuspended in medium containing 20 mM HEPES, pH 7.4, and loaded with 5 μM Fura 2 AM (Calbiochem) for 30 minutes. The cells were centrifuged at 150×g for 10 minutes to remove extracellular dye and resuspended and placed in a spectrofluorometer cell equipped with stirring and 37° C. heating. The emission was read at 510 nm with 340 excitation (Moody et al., Biochem. Biophys. Res. Commun. 147:189 (1987)). The response of compounds at 5 μM was measured initially as a screen and compared to that of 10 nM BBN. The response of varying concentrations of peptide (nM to μM) in the presence of 10 nM BBN was determined.

Test [6] concerns NCI-H345. The test is described as follows: Clonagenic assay, colony formation of NCI-H345. It is filed as cell-based, human. Further details: key to Growth: significantly reduced (R); had no effect (--) on th. The following applies: compound 1 μM; clonal growth of a human tumor cell line. How it is done:
The effect of 1 to 1000 nM concentration of peptides on growth of NCI-H345 colonies stimulated by 10 nM BBN was measured in the agarose cloning system (Mahoud et al., Cancer Res. 51:1798 (1991); Staley et al., Peptides 12:145-149 (1991)). […] On the day of the assay, cells were harvested, centrifuged and suspended in the buffer. The agarose cloning system consisted of 3 ml of 0.5% agarose in SIT medium with 5% fetal bovine serum in six well plates. To a top layer, consisting of 3 ml HITES medium in 0.3% agarose, the peptides at two times concentration and 6×10^4 single viable cells, were added. For each peptide concentration, triplicate wells were plated. After two weeks, 1 ml of 0.1% p-iodo-nitrotetrazolium violet was added, and after 16 hours at 37° C., the plates were screened for colony formation; the number of colonies larger than […] in diameter were counted using a Bausch and Lomb Omnicon image analysis system.

The mark [7] stands for this setting: 50% inhibition of specific [125I]Tyr4-BBN binding, NCI-H345, read-out: IC50.

Like-named read-outs stand apart in the source and are kept apart here. Positions of bridges follow the written chain, without caps; N, C: chain ends. Non-standard residues stand in square brackets, D forms with d. Residues, ends and D or L forms follow the SMILES beside them. *: point of attachment. Chlorambucil = O=C(CCCc1ccc(N(CCCl)CCCl)cc1)*; NH(4-Br-phenethyl) = Brc1ccc(CCN*)cc1; X1 = O=C(CCCc1ccc(N(CCO)CCCl)cc1)*; 1Naphthoyl = O=C(c1cccc2ccccc12)*; Bz = O=C(c1ccccc1)*; NHPr = CCCN*

By EC50 is commonly meant the concentration giving half of the maximal effect. As a reminder, the IC50 is the concentration that gives 50% inhibition. A word on the Kd: it is the constant that tells how readily two partners part at equilibrium.

T2 sequence (P30550 whole entry): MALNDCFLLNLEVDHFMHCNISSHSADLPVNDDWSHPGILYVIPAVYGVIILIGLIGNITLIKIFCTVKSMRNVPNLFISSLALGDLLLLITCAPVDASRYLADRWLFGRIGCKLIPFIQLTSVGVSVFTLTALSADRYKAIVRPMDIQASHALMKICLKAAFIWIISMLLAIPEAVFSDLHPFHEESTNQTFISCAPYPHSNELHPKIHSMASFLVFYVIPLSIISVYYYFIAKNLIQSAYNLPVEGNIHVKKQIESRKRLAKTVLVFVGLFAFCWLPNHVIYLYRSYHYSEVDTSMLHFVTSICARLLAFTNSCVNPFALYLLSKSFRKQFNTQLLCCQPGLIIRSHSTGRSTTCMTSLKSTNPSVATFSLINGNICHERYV
T1 sequence (P52500 whole entry): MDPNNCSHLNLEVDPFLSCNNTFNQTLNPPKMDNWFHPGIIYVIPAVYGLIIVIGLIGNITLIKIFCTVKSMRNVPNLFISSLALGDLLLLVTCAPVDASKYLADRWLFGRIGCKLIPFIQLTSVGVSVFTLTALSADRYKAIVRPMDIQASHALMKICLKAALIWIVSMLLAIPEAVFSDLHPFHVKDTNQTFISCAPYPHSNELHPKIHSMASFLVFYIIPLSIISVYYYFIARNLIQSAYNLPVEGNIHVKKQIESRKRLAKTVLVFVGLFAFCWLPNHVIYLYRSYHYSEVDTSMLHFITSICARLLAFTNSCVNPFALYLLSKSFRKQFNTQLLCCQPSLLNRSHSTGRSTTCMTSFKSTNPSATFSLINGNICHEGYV

In turn, `CC(=O)N[C@@H]1CCCCNC(=O)[C@H](CC(C)C)NC(=O)[C@H](Cc2c[nH]cn2)NC(=O)[C@@H](C)NC(=O)[C@H](C(C)C)NC(=O)[C@H](C)NC(=O)[C@H](Cc2c[nH]c3ccccc23)NC(=O)[C@H](CCC(N)=O)NC(=O)[C@H](CC(N)=O)NC1=O` [PTC 804] (Ac-[dK]NQWAV[dA]HL; lactam 1-C) returned a concentration for a half-maximal effect (EC50) in test [1] above 3 µM. Also, the values for the half-maximal inhibitory concentration (IC50) in test [2] and in test [4] (setting [7]) were above 3 µM and 6 µM, respectively. In addition, the equilibrium dissociation constant (Kd) in test [3] was above 3 µM. The “inhibition of BBN binding to SCLC membranes (in words)” value in test [4] is on record as “only weak inhibition of BBN binding”. The “Ca++ effect” value in test [5] is on record as “--”.
For the compound `CC(C)C[C@@H]1NC(=O)[C@H](Cc2c[nH]cn2)NC(=O)[C@@H](C)NC(=O)[C@H](C(C)C)NC(=O)[C@H](C)NC(=O)[C@H](Cc2c[nH]c3ccccc23)NC(=O)[C@H](CCC(N)=O)NC(=O)[C@H](CC(N)=O)NC(=O)[C@H](NC(=O)c2ccccc2)CCCCNC1=O` [PTC 807] (Bz-[dK]NQWAV[dA]HL; lactam 1-C), the “Ca++ effect” value in test [5] was “--”.
In test [4], `CCOC(=O)[C@H](CC(C)C)NC(=O)[C@H](Cc1c[nH]cn1)NC(=O)[C@@H](C)NC(=O)[C@@H](NC(=O)[C@H](C)NC(=O)[C@H](Cc1c[nH]c2ccccc12)NC(=O)[C@H](CCC(N)=O)NC(=O)[C@H](CC(N)=O)NC(=O)CCCc1ccc(N(CCO)CCCl)cc1)C(C)C` [PTC 815B] (X1-NQWAV[dA]HL-OEt) showed an IC50 of 0.045 µM.
Regarding `CC(C)C[C@@H]1NC(=O)[C@H](Cc2c[nH]cn2)NC(=O)[C@@H](C)NC(=O)[C@H](C(C)C)NC(=O)[C@H](C)NC(=O)[C@H](Cc2c[nH]c3ccccc23)NC(=O)[C@H](CCC(N)=O)NC(=O)[C@H](CC(N)=O)NC(=O)[C@H](NC(=O)c2cccc3ccccc23)CCCCNC1=O` [PTC 808] (1Naphthoyl-[dK]NQWAV[dA]HL; lactam 1-C), the “Ca++ effect” value in test [5] was “--”.
Take `CC(=O)N[C@H]1CCCCNC(=O)[C@H](CC(C)C)NC(=O)[C@H](Cc2c[nH]cn2)NC(=O)[C@@H](C)NC(=O)[C@H](C(C)C)NC(=O)[C@H](C)NC(=O)[C@H](Cc2c[nH]c3ccccc23)NC(=O)[C@H](CCC(N)=O)NC(=O)[C@H](CC(N)=O)NC1=O` [PTC 806] (Ac-KNQWAV[dA]HL; lactam 1-C): the EC50 in test [1] was above 3 µM. In addition, the IC50 in test [2] was above 3 µM. For the same compound, the equilibrium dissociation constant (Kd) in test [3] is above 3 µM.
As to `CC(=O)N[C@H]1CCCCNC(=O)[C@H](CC(C)C)NC(=O)[C@H](Cc2c[nH]cn2)NC(=O)[C@H](C)NC(=O)[C@H](C(C)C)NC(=O)[C@H](C)NC(=O)[C@H](Cc2c[nH]c3ccccc23)NC(=O)[C@H](CCC(N)=O)NC(=O)[C@H](CC(N)=O)NC1=O` [PTC 803] (Ac-KNQWAVAHL; lactam 1-C), the EC50 in test [1] is above 3 µM. Moreover, the concentration for half-maximal inhibition (IC50) in test [2] was above 3 µM; in test [4] (setting [7]), above 10 µM. In test [3], this compound yielded a Kd above 3 µM. In addition, the “Ca++ effect” value in test [5] is given as “--”.
Consider `CC(C)C[C@@H]1NC(=O)[C@H](Cc2c[nH]cn2)NC(=O)[C@@H](C)NC(=O)[C@H](C(C)C)NC(=O)[C@H](C)NC(=O)[C@H](Cc2c[nH]c3ccccc23)NC(=O)[C@H](CCC(N)=O)NC(=O)[C@H](CC(N)=O)NC(=O)[C@H](Nc2ccc([N+](=O)[O-])cc2[N+](=O)[O-])CCCCNC1=O` [PTC 809], for which, in test [1], the concentration giving a half-maximal response (EC50) was above 3 µM. Also, the results for the concentration for half-maximal inhibition (IC50) in test [2] and in test [4] (setting [7]) were above 3 µM and above 10 µM, respectively. The dissociation constant (Kd) in test [3] is above 3 µM. Moreover, in test [5], the “Ca++ effect” value is “--”.
In test [1], `CCOC(=O)[C@H](CC(C)C)NC(=O)[C@H](Cc1c[nH]cn1)NC(=O)[C@@H](C)NC(=O)[C@@H](NC(=O)[C@H](C)NC(=O)[C@H](Cc1c[nH]c2ccccc12)NC(=O)[C@H](CCC(N)=O)NC(=O)[C@H](CC(N)=O)NC(=O)CCCc1ccc(N(CCCl)CCCl)cc1)C(C)C` [PTC 815] (Chlorambucil-NQWAV[dA]HL-OEt) came in with an EC50 above 3 µM. Besides, the IC50 in test [2] was determined as 0.0085 ± 0.0005 µM; in test [4] it was 0.035 µM. Further, in test [3], the Kd was determined as 0.0107 ± 0.0034 µM.
In test [1], `CC(=O)N[C@@H]1CCCCNC(=O)[C@H](CC(C)C)NC(=O)[C@H](Cc2c[nH]cn2)NC(=O)[C@H](C)NC(=O)[C@H](C(C)C)NC(=O)[C@H](C)NC(=O)[C@H](Cc2c[nH]c3ccccc23)NC(=O)[C@H](CCC(N)=O)NC(=O)[C@H](CC(N)=O)NC1=O` [PTC 805] (Ac-[dK]NQWAVAHL; lactam 1-C) returned an EC50 above 3 µM. Moreover, the half-inhibitory concentration (IC50) is above 3 µM in test [2] and above 10 µM in test [4] (setting [7]). The compound further displayed a Kd in test [3] above 3 µM. For the same compound, the “Ca++ effect” value in test [5] was “--”.
Consider `CC(=O)N[C@@H](Cc1c[nH]cn1)C(=O)N[C@@H](Cc1c[nH]c2ccccc12)C(=O)N[C@@H](C)C(=O)N[C@H](C(=O)N[C@H](C)C(=O)N[C@@H](Cc1c[nH]cn1)C(=O)NCCc1ccc(Br)cc1)C(C)C` [PTC 820] (Ac-HWAV[dA]H-{NH(4-Br-phenethyl)}), for which the concentration for a half-maximal effect (EC50) in test [1] is above 3 µM. The half-inhibitory concentration (IC50) is above 3 µM in test [2] and above 10 µM in test [4]. The Kd in test [3] was above 3 µM. In addition, in test [5], the “Ca++ effect” value was “--”. Moreover, the Growth entry in test [6] is given as “--”.
For the compound `CCCNC(=O)[C@H]1CCC(=O)NCCCC[C@H](NC(C)=O)C(=O)N[C@@H](Cc2c[nH]c3ccccc23)C(=O)N[C@@H](C)C(=O)N[C@@H](C(C)C)C(=O)N[C@H](C)C(=O)N[C@@H](Cc2c[nH]cn2)C(=O)N1` [PCT 812] (Ac-KWAV[dA]H[dE]-NHPr; lactam 1-7), the IC50 in test [4] (setting [7]) was 4 µM. For the same compound, the “inhibition of BBN binding to SCLC membranes (in words)” value in test [4] is on record as “only weak inhibition of BBN binding”. The “Ca++ effect” value in test [5] was “A”. In addition, the Growth entry in test [6] is listed as “R”.

Source of the values: patent US5620955A, “Bombesin receptor antagonists and uses thereof” (Peptide Technologies Corporation, priority 1993, dated 1997).
